Counter-ions that a name gives are not always drawn.
System: urine-derived renal epithelial cells
Assay: AP staining, efficiency of AP positive clones (iPSCs induction)
Assay type: cell-based, human
Settings: Example 5; day 0 to day 8 of induction culture; FIG. 11-12
Protocol: 1. The procedure for AP staining is as follows,
a) Aspirate and remove the growth medium from the cultures to be stained when the cell culture is finished, wash the culture with 1×PBS one time; Fix the cells with 4% paraformaldehyde at room temperature for 2 min;
b) Aspirate the fixing solution, wash the culture with 1×TBST for 3 times; Balance with AP buffer at room temperature for 5 min;
c) Chromogenic reaction was performed with AP chromogenic reagent at room temperature in dark for 15 min (5-15 min, terminated when the color of clones became darker and without background, increase the reaction time appropriately if the clones were not stained). The chromogenic reagent was aspirated, cells were washed with 1×PBS for two times, covered with an appropriate amount of 1×PBS, observed and counted under a microscope.
Alkaline phosphatase (AP) is a phosphomonoesterase. The alkaline phosphatase in the cytoplasm can hydrolyze sodium naphthol phosphate to produce α-naphthol in alkaline environments. The latter reacts with a stable azo salt and presents a deep purple color, which the presence of alkaline phosphatase and the abundance of expression could be determined accordingly. Alkaline phosphatase is highly expressed in undifferentiated pluripotent stem cells, and the activity of alkaline phosphatase in the differentiated pluripotent stem cells is decreased. Therefore, whether the cells are clones of iPSCs could be determined by alkaline phosphatase staining (AP staining). And, thus the efficiency of iPSCs production can be easily judged according to the efficiency of AP positive clones.
a) Electroporation transformation: The recombinant plasmids obtained in step 1) were added into the culture of renal epithelial cells after digestion with trypsin, and then transferred into the renal epithelial cells. After electroporation, the cells were seeded on a cell culture plate coated with extracellular matrix;
b) Induction culture: 1-3 days after Step 1), or when the cells reached a confluence of 30% or more, the culture medium of pluripotent stem cell was used to continue induction culture. About 15-30 days after the mature of iPSCs clones, the positive clones of iPSCs were identified by AP staining, and the efficiency of AP positive clones was calculated accordingly;

| Structure (SMILES) | preferable concentration for promoting cell reprogramming (AP staining) |
| --- | --- |
| Cc1c[nH]c(-c2cnc(NCCNc3ccc(C#N)cn3)nc2-c2ccc(Cl)cc2Cl)n1 [CHIR-99021] | 3 µM |
| O=C(NOC[C@H](O)CO)c1ccc(F)c(F)c1Nc1ccc(I)cc1F [PD0325901] | 0.5 µM |
| CCCC(=O)[O-].[Na+] [sodium butyrate, Sodium Butyrate] | 0.25 µM |
| N[C@@H]1C[C@H]1c1ccccc1 [tranylcypromine hydrochloride, Tranylcypromine hydrochloride] | 2 µM |

Source: US20180371422A1, “NON-VIRAL IPSCS INDUCING METHOD, COMPOSITIONS, KITS AND IPSCS” (Guangzhou Biocare Biotechnology Co., Ltd, priority 2016, published 2018)
